Measured values as given in patent publication US10633379B2, “Bromodomain inhibitors” (AbbVie Inc., priority 2016, dated 2020).

How the values were obtained:
BRD4 (BDI_K57-E168) = BRD4 (BDI_K57-E168) (Homo sapiens (Human), UniProt O60885); assay: TR-FRET bromodomain binding assay, BRD4 BDI; conditions: mean Ki, calculated from IC50, probe Kd and probe concentration
Method: (§1) A time-resolved fluorescence resonance energy transfer (TR-FRET) assay was used to determine the affinities of compounds of the Examples listed in Table 1 for each bromodomain of BRD4. His-tagged first (BDI: amino acids K57-E168) and second (BDII: amino acids E352-M457) bromodomains of BRD4 were expressed and purified. An Alexa647-labeled BET-inhibitor was used as the fluorescent probe in the assay.
(§2) Compound dilution series were prepared in DMSO via an approximately 3-fold serial dilution. Compound dilutions were added directly into white, low-volume assay plates (Perkin Elmer Proxiplate 384 Plus#6008280) using a Labcyte Echo in conjunction with Labcyte Access and Thermo Multidrop CombinL robotics. Compounds were then suspended in eight microliters (μL) of assay buffer (20 mM Sodium Phosphate, pH 6.0, 50 mM NaCl, 1 mM Ethylenediaminetetraacetic acid disodium salt dihydrate, 0.01% Triton X-100, 1 mM DL-Dithiothreitol) containing His-tagged bromodomain, Europium-conjugated anti-His antibody (Invitrogen PV5596) and Alexa-647-conjugated probe.
(§3) The final concentration of 1× assay mixture contained 2% DMSO, 12 nM His tagged BRD4 (BDI_K57-E168) and 100 nM probe or 4 nM His tagged BRD4 (BDII_E352-M457) and 30 nM probe, and 1 nM Europium-conjugated anti-His-tag antibody, and compound concentrations in the range of: 49.02 μM-0.61 nM or 0.98 μM-0.15 nM.
(§4) After a one-hour equilibration at room temperature, TR-FRET ratios were determined using an Envision multilabel plate reader (Ex 340, Em 495/520).
(§5) TR-FRET data were normalized to the means of 24 no-compound controls (“high”) and 8 controls containing 1 μM un-labeled probe (“low”). Percent inhibition was plotted as a function of compound concentration and the data were fit with the 4 parameter logistic equation to obtain IC50s. Inhibition constants (Ki) were calculated from the IC50s, probe Kd and probe concentration.

BRD4 (BDII_E352-M457) = BRD4 (BDII_E352-M457) (Homo sapiens (Human), UniProt O60885); assay: TR-FRET bromodomain binding assay, BRD4 BDII; conditions: mean Ki, calculated from IC50, probe Kd and probe concentration
Method: as §1, §2, §3, §4, §5

Row | SMILES | Ki (BRD4 (BDI_K57-E168)) [µM] | Ki (BRD4 (BDII_E352-M457)) [µM]
1 | Cc1cccc(C(F)(F)F)c1Oc1ncc(C(C)(C)O)cc1-c1cn(C)c(=O)c2[nH]c(C(=O)NC(C)(C)C(F)(F)F)cc12 [Example 46, 4-{5-(2-hydroxypropan-2-yl)-2-[2-methyl-6-(trifluoromethyl)phenoxy]pyridin-3-yl}-6-methyl-7-oxo-N-(1,1,1-trifluoro-2-methylpropan-2-yl)-6,7-dihydro-1H-pyrrolo[2,3-c]pyridine-2-carboxamide] | 2.52 | 0.0195
2 | CCNC(=O)c1cc2c(-c3cc(C(C)(C)O)cnc3Oc3c(C)cccc3C(F)(F)F)cn(C)c(=O)c2[nH]1 [Example 48, N-ethyl-4-{5-(2-hydroxypropan-2-yl)-2-[2-methyl-6-(trifluoromethyl)phenoxy]pyridin-3-yl}-6-methyl-7-oxo-6,7-dihydro-1H-pyrrolo[2,3-c]pyridine-2-carboxamide] | 1.6 | 0.006
3 | CCNC(=O)c1cc2c(-c3cc(C(C)(C)O)ccc3Oc3c(C)cc(F)cc3Cl)cn(C)c(=O)c2[nH]1 [Example 49, 4-[2-(2-chloro-4-fluoro-6-methylphenoxy)-5-(2-hydroxypropan-2-yl)phenyl]-N-ethyl-6-methyl-7-oxo-6,7-dihydro-1H-pyrrolo[2,3-c]pyridine-2-carboxamide] | 0.284 | 0.001
4 | Cc1cc(F)cc(Cl)c1Oc1ncc(C(C)(C)O)cc1-c1cn(C)c(=O)c2[nH]c(C(=O)NC(C)(C)C)cc12 [Example 51, N-tert-butyl-4-[2-(2-chloro-4-fluoro-6-methylphenoxy)-5-(2-hydroxypropan-2-yl)pyridin-3-yl]-6-methyl-7-oxo-6,7-dihydro-1H-pyrrolo[2,3-c]pyridine-2-carboxamide] | 0.263 | 0.0049
5 | Cc1cc(F)cc(C)c1Oc1ccc(C(C)(C)O)cc1-c1cn(C)c(=O)c2[nH]c(C(=O)NC(C)(C)C(F)(F)F)cc12 [Example 55, 4-[2-(4-fluoro-2,6-dimethylphenoxy)-5-(2-hydroxypropan-2-yl)phenyl]-6-methyl-7-oxo-N-(1,1,1-trifluoro-2-methylpropan-2-yl)-6,7-dihydro-1H-pyrrolo[2,3-c]pyridine-2-carboxamide] | 4.69 | 0.0069
6 | Cc1cc(F)cc(C)c1Oc1ncc(C(C)(C)O)cc1-c1cn(C)c(=O)c2[nH]c(C(=O)NC(C)(C)C(F)(F)F)cc12 [Example 56, 4-[2-(4-fluoro-2,6-dimethylphenoxy)-5-(2-hydroxypropan-2-yl)pyridin-3-yl]-6-methyl-7-oxo-N-(1,1,1-trifluoro-2-methylpropan-2-yl)-6,7-dihydro-1H-pyrrolo[2,3-c]pyridine-2-carboxamide] | 0.917 | 0.0047
7 | Cc1cc(F)cc(Cl)c1Oc1ccc(C(C)(C)O)cc1-c1cn(C)c(=O)c2[nH]c(C(=O)NC(C)(C)C(F)(F)F)cc12 [Example 57, 4-[2-(2-chloro-4-fluoro-6-methylphenoxy)-5-(2-hydroxypropan-2-yl)phenyl]-6-methyl-7-oxo-N-(1,1,1-trifluoro-2-methylpropan-2-yl)-6,7-dihydro-1H-pyrrolo[2,3-c]pyridine-2-carboxamide] | 2.89 | 0.0175
8 | Cc1cc(F)cc(Cl)c1Oc1ncc(C(C)(C)O)cc1-c1cn(C)c(=O)c2[nH]c(C(=O)NC(C)(C)C(F)(F)F)cc12 [Example 58, 4-[2-(2-chloro-4-fluoro-6-methylphenoxy)-5-(2-hydroxypropan-2-yl)pyridin-3-yl]-6-methyl-7-oxo-N-(1,1,1-trifluoro-2-methylpropan-2-yl)-6,7-dihydro-1H-pyrrolo[2,3-c]pyridine-2-carboxamide] | 0.723 | 0.0081
9 | Cc1cc(F)cc(C)c1Oc1ncc(C(C)(C)O)cc1-c1cn(C)c(=O)c2[nH]c(C(=O)NC3(C)CC3(F)F)cc12 (stereo not shown) [Example 61, N-(2,2-difluoro-1-methylcyclopropyl)-4-[2-(4-fluoro-2,6-dimethylphenoxy)-5-(2-hydroxypropan-2-yl)pyridin-3-yl]-6-methyl-7-oxo-6,7-dihydro-1H-pyrrolo[2,3-c]pyridine-2-carboxamide] | 1.58 | 0.012
10 | Cc1cc(F)cc(Cl)c1Oc1ncc(C(C)(C)O)cc1-c1cn(C)c(=O)c2[nH]c(C(=O)NC3(C)CC3(F)F)cc12 (stereo not shown) [Example 62, 4-[2-(2-chloro-4-fluoro-6-methylphenoxy)-5-(2-hydroxypropan-2-yl)pyridin-3-yl]-N-(2,2-difluoro-1-methylcyclopropyl)-6-methyl-7-oxo-6,7-dihydro-1H-pyrrolo[2,3-c]pyridine-2-carboxamide] | 1.11 | 0.0102

The remaining molecules from weak to strong by Ki (BRD4 (BDI_K57-E168)), led by results:

Row | Ki (BRD4 (BDI_K57-E168)) [µM] | Ki (BRD4 (BDII_E352-M457)) [µM] | SMILES
11 | 4.52 | 0.006 | Cc1cccc(C(F)(F)F)c1Oc1ccc(C(C)(C)O)cc1-c1cn(C)c(=O)c2[nH]c(C(=O)NC(C)(C)C)cc12 [Example 54, N-tert-butyl-4-{5-(2-hydroxypropan-2-yl)-2-[2-methyl-6-(trifluoromethyl)phenoxy]phenyl}-6-methyl-7-oxo-6,7-dihydro-1H-pyrrolo[2,3-c]pyridine-2-carboxamide]
12 | 3.51 | 0.0075 | Cc1cc(F)cc(C)c1Oc1ccc(C(C)(C)O)cc1-c1cn(C)c(=O)c2[nH]c(C(=O)NC3(C)CC3(F)F)cc12 (stereo not shown) [Example 60, N-(2,2-difluoro-1-methylcyclopropyl)-4-[2-(4-fluoro-2,6-dimethylphenoxy)-5-(2-hydroxypropan-2-yl)phenyl]-6-methyl-7-oxo-6,7-dihydro-1H-pyrrolo[2,3-c]pyridine-2-carboxamide]
13 | 2.06 | 0.0244 | Cc1cccc(C(F)(F)F)c1Oc1ncc(C(C)(C)O)cc1-c1cn(C)c(=O)c2[nH]c(C(=O)NC3(C)CC3(F)F)cc12 (stereo not shown) [Example 47, N-(2,2-difluoro-1-methylcyclopropyl)-4-{5-(2-hydroxypropan-2-yl)-2-[2-methyl-6-(trifluoromethyl)phenoxy]pyridin-3-yl}-6-methyl-7-oxo-6,7-dihydro-1H-pyrrolo[2,3-c]pyridine-2-carboxamide]
14 | 1.08 | 0.0125 | Cc1cccc(C(F)(F)F)c1Oc1ncc(C(C)(C)O)cc1-c1cn(C)c(=O)c2[nH]c(C(=O)NC(C)(C)C)cc12 [Example 45, N-tert-butyl-4-{5-(2-hydroxypropan-2-yl)-2-[2-methyl-6-(trifluoromethyl)phenoxy]pyridin-3-yl}-6-methyl-7-oxo-6,7-dihydro-1H-pyrrolo[2,3-c]pyridine-2-carboxamide]
15 | 0.525 | 0.005 | CCNC(=O)c1cc2c(-c3cc(C(C)(C)O)cnc3Oc3c(C)cc(F)cc3C)cn(C)c(=O)c2[nH]1 [Example 43, N-ethyl-4-[2-(4-fluoro-2,6-dimethylphenoxy)-5-(2-hydroxypropan-2-yl)pyridin-3-yl]-6-methyl-7-oxo-6,7-dihydro-1H-pyrrolo[2,3-c]pyridine-2-carboxamide]
16 | 0.432 | 0.0046 | Cc1cc(F)cc(Cl)c1Oc1ccc(C(C)(C)O)cc1-c1cn(C)c(=O)c2[nH]c(C(=O)NC(C)(C)C)cc12 [Example 53, N-tert-butyl-4-[2-(2-chloro-4-fluoro-6-methylphenoxy)-5-(2-hydroxypropan-2-yl)phenyl]-6-methyl-7-oxo-6,7-dihydro-1H-pyrrolo[2,3-c]pyridine-2-carboxamide]
17 | 0.406 | 0.0015 | Cc1cccc(Cl)c1Oc1ncc(C(C)(C)O)cc1-c1cn(C)c(=O)c2[nH]c(C(=O)NC34CC(C3)C4)cc12 [Example 63, N-(bicyclo[1.1.1]pentan-1-yl)-4-[2-(2-chloro-6-methylphenoxy)-5-(2-hydroxypropan-2-yl)pyridin-3-yl]-6-methyl-7-oxo-6,7-dihydro-1H-pyrrolo[2,3-c]pyridine-2-carboxamide]
18 | 0.325 | 0.0009 | CCNC(=O)c1cc2c(-c3cc(C(C)(C)O)cnc3Oc3c(C)cc(F)cc3Cl)cn(C)c(=O)c2[nH]1 [Example 52, 4-[2-(2-chloro-4-fluoro-6-methylphenoxy)-5-(2-hydroxypropan-2-yl)pyridin-3-yl]-N-ethyl-6-methyl-7-oxo-6,7-dihydro-1H-pyrrolo[2,3-c]pyridine-2-carboxamide]
19 | 0.323 | 0.0073 | Cc1cc(F)cc(C)c1Oc1ncc(C(C)(C)O)cc1-c1cn(C)c(=O)c2[nH]c(C(=O)NC(C)(C)C)cc12 [Example 44, N-tert-butyl-4-[2-(4-fluoro-2,6-dimethylphenoxy)-5-(2-hydroxypropan-2-yl)pyridin-3-yl]-6-methyl-7-oxo-6,7-dihydro-1H-pyrrolo[2,3-c]pyridine-2-carboxamide]
20 | 0.181 | 0.0004 | CCNC(=O)c1cc2c(-c3cc(C(C)(C)O)c(F)cc3Oc3c(C)cccc3C)cn(C)c(=O)c2[nH]1 [Example 64, 4-[2-(2,6-dimethylphenoxy)-4-fluoro-5-(2-hydroxypropan-2-yl)phenyl]-N-ethyl-6-methyl-7-oxo-6,7-dihydro-1H-pyrrolo[2,3-c]pyridine-2-carboxamide]
